Reference: US4001237A, “Oxazole, isoxazole, thiazole and isothiazole amides” (priority 1976, dated 1977)
Counter-ions that a name gives are not always drawn. Like-named read-outs stand apart in the source and are kept apart here.

What was measured:
[1] = test system: spontaneous hypertensive rats; assay: Antihypertensive activity by oral administration to spontaneous hypertensive rats; format: in vivo, rat; conditions: for change in vivo at 1 mg/kg / change in vivo at 3 mg/kg / change in vivo at 10 mg/kg: Rattus norvegicus, read-out: Antihypertensive Activity % Blood Pressure Change
Experimental: (§1) In the following table, antihypertensive acitvity was determined by oral administration to spontaneous hypertensive rats, and the in vitro and in vivo α-adrenergic receptor blocking effect was determined by tests described following the table. In the in vitro test, the inhibition by the test drug of norepinephrine induced contractions of rat seminal vesicles was measured; and in the in vivo test, the inhibition by the test drug of norepinephrine induced pressor responses in anesthetized dogs was measured.

α-adrenergic receptor [2] = molecular target: T1, α-adrenergic receptor (Rattus norvegicus, UniProt P43140); assay: Isolated rat seminal vesicle assay: inhibition of norepinephrine induced contractions; format: cell-based; conditions: relative to prazosin; test compound 10 nanograms/ml; shift of norepinephrine ED50, rat seminal vesicle
T1 construct: Seminal vesicles were removed and transfered to a shallow dish containing modified Tyrode's solution; from tissue; host or cells: isolated seminal vesicle of male Long Evans rats
T1 sequence (P43140 1-466): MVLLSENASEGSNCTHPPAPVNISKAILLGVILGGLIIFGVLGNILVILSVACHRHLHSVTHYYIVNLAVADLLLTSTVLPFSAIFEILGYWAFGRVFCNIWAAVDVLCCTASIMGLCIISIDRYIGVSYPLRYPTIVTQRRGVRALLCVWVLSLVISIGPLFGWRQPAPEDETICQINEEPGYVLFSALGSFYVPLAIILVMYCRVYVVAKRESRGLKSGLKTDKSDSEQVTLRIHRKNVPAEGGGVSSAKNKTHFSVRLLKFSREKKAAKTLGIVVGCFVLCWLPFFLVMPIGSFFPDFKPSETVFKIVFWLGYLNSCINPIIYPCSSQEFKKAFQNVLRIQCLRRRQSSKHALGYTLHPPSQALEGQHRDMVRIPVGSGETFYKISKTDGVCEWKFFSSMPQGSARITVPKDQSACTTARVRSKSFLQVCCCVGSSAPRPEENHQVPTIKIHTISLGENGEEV
Experimental: as §1
Dangan et al., Int. j. […] Lietch et al., Brit.
Male Long Evans rats weighing approximately 300 g. were sacrificed by a sharp blow on the head. Seminal vesicles were removed and transfered to a shallow dish containing modified Tyrode's solution. The vesicles were emptied of their contents by squeezing them gently with a pair of forceps. Silk thread (4-0) was attached to both ends of the vesicle and it was suspended in a 20 ml. muscle chamber containing modified oxygenated Tyrode's solution (g./liter: NaCl 8, KCl 0.2, CaCl2 0.26, NaHCO3 1, Na2 HPO4 0.575, glucose 0.5 and MgCl2 0.02). The bathing fluid was maintained at 37° C. with a thermostatically controlled isolated organ tissue bath. Contractions were recorded isometrically by means of a force displacement transducer and recordings were made with a Beckman RP Dynograph. Norepinephrine (NE) was added to the muscle chamber in volumes ranging from 0.1 to 0.4 ml. with a 1 ml. syringe attached to a 3 inch 20 gauge needle. NE and test compounds were dissolved in deionized water.
NE dose response curves were obtained alone and in the presence of test compounds. NE was allowed to remain in contact with the strip until a maximal contraction was obtained. The strip was then washed with the perfusion fluid for 15-30 seconds and the preparation was allowed to return to base line before a subsequent dose of NE was given. Increasing amounts of NE were injected into the bath in the same manner until a complete dose response was obtained.
The seminal vesicles used to obtain the control NE dose response were discarded and new preparations were placed in the tissue bath for evaluation of the test compound. The test compound was added directly to the perfusion fluid (10 nanograms/ml.) and the strips were allowed to remain in contact with the bathing media for at least 10 minutes before the NE dose response was determined. Seminal vesicles from the same rat were used for control and for test drug.
ED50 values for NE were obtained by regression analysis as described by Finney, Probit, Analysis, 2d Ed., Cambridge (1964). A minimum of 4 strips and at least 4 doses were employed to calculate the regression lines. The ED50 value is defined as the concentration of NE which produces a contraction equal to 50% of the maximal contraction.

α-adrenergic receptor [3] = assay: Anesthetized dog assay for α-adrenergic blocking agents: inhibition of norepinephrine induced pressor responses; format: in vivo; conditions: relative to prazosin; test drug 3 mg./kg. iv; norepinephrine dose raising blood pressure by 50 mm. of Hg; anesthetized dogs
Experimental: as §1
Thus, blood pressure responses to norepinephrine (NE) in anesthetized dogs was used as a comparative assay for α-adrenergic receptor blocking properties of drugs.
Experiments were done on mongrel dogs anesthetized with sodium pentobarbital, 30 mg./kg. iv. The left femoral artery was cannulated to record aortic blood pressure and a femoral vein was cannulated for administration of drugs. All animals underwent a bilateral vagotomy. A norepinephrine dose-response curve was obtained by administering increasing doses of iv norepinephrine (0.01 - 1 μg./kg.). The test drug was then administered iv at 3 mg./kg. Approximately 30 minutes later a dose-response curve was again established for iv norepinephrine (0.01-10 μg./kg.).

[4] = dose 1 mg/kg, oral, spontaneous hypertensive rats
[5] = dose 3 mg/kg, oral, spontaneous hypertensive rats
[6] = dose 10 mg/kg, oral, spontaneous hypertensive rats
[7] = oral, spontaneous hypertensive rats

SMILES | change in vivo at 1 mg/kg [1, 4] | change in vivo at 3 mg/kg [1, 5] | change in vivo at 10 mg/kg [1, 6] | α-Adrenergic Receptor Blocking Effect In Vitro Activity Ratio (α-adrenergic receptor [2]) | α-Adrenergic Receptor Blocking Effect In Vivo Activity Ratio (α-adrenergic receptor [3]) | "plateauing" dose response effect on blood pressure lowering [1, 7] | change in vivo at 1 mg/kg ([1]; po) | change in vivo at 3 mg/kg ([1]; po) | change in vivo at 10 mg/kg ([1]; po)
COc1cc2nc(N3CCN(C(=O)c4ccno4)CC3)nc(N)c2cc1OC [Example 1, 4-Amino-6,7-dimethyoxy-2-[4-(isoxazole-5-carbonyl)-piperazine-1-yl]quinazoline Hydrochloride] | -15% | -26% | -35% | 0.11 | 0.18 |  |  |  | 
COc1cc2nc(N3CCN(C(=O)c4ccon4)CC3)nc(N)c2cc1OC [Example 2, 4-Amino-6,7-dimethoxy-2-[4-(isoxazole-3-carbonyl)-piperazin-1-yl]quinazoline Hydrochloride] | -12% | -26% | -32% |  |  |  |  |  | 
COc1cc2nc(N3CCN(C(=O)c4cnoc4)CC3)nc(N)c2cc1OC.Cl [Example 3, 4-Amino-6,7-dimethoxy-2-[4-(isoxazole-4-carbonyl)-piperazin-1-yl]quinazoline Hydrochloride] | -13% | -23% | -35% | 0.92 |  |  |  |  | 
COc1cc2nc(N3CCN(C(=O)c4cc(C)on4)CC3)nc(N)c2cc1OC.Cl [Example 4, 4-Amino-6,7-dimethoxy-2-[4-(5-methylisoxazole-3-carbonyl)piperazin-1-yl]quinazoline Hydrochloride] | -14% | -18% | -41% |  | 0.24 |  |  |  | 
COc1cc2nc(N3CCN(C(=O)c4conc4C)CC3)nc(N)c2cc1OC.Cl [Example 5, 4-Amino-6,7-dimethoxy-2-[4-(3-methylisoxazole-4-carbonyl)piperazin-1-yl]quinazoline Hydrochloride] | -17% | -29% | -33% | 0.30 | 0.18 |  |  |  | 
COc1cc2nc(N3CCN(C(=O)c4cc(C)no4)CC3)nc(N)c2cc1OC.Cl [Example 6, 4-Amino-6,7-dimethoxy-2-[4-(3-methylisoxazole-5-carbonyl)piperazin-1-yl]quinazoline Hydrochloride] | -18% | -21% | -37% | 0.25 |  |  |  |  | 
COc1cc2nc(N3CCN(C(=O)c4cocn4)CC3)nc(N)c2cc1OC.Cl [Example 7, 4-Amino-6,7-dimethoxy-2-[4-(oxazole-4-carbonyl)piperazin-1-yl]quinazoline Hydrochloride] | -15% | -29% | -45% | 0.6 | 1.22 |  |  |  | 
COc1cc2nc(N3CCN(C(=O)c4coc(C)n4)CC3)nc(N)c2cc1OC.Cl [Example 8, 4-Amino-6,7-dimethoxy-2-[4-(2-methyloxazole-4-carbonyl)piperazin-1-yl]quinazoline Hydrochloride] | -13% | -31% | -35% | 0.17 |  |  |  |  | 
COc1cc2nc(N3CCN(C(=O)c4ocnc4C)CC3)nc(N)c2cc1OC.Cl [Example 9, 4-Amino-6,7-dimethoxy-2-[4-(4-methyloxazole-5-carbonyl)piperazin-1-yl]quinazoline Hydrochloride] | -14% | -26% | -41% | 0.19 |  |  |  |  | 
COc1cc2nc(N3CCN(C(=O)c4cnsc4)CC3)nc(N)c2cc1OC.Cl [Example 10, 4-Amino-6,7-dimethoxy-2-[4-(isothiazole-4-carbonyl)piperazin-1-yl)quinazoline Hydrochloride] | -14% | -23% | -25% |  |  | maximum blood pressure lowering effect is seen at 3 mg./kg. which could not be increased at higher doses |  |  | 
COc1cc2nc(N3CCN(C(=O)c4nccs4)CC3)nc(N)c2cc1OC [Example 11, 4-Amino-6,7-dimethoxy-2-[4-thiazole-2-carbonyl)piperazin-1-yl]quinazoline Hydrochloride] | -14% | -27% | -33% |  |  |  |  |  | 
COc1cc2nc(N3CCN(C(=O)c4cscn4)CC3)nc(N)c2cc1OC [Example 12] | -20% | -24% | -32% | 0.12 |  |  |  |  | 
COc1cc2nc(N3CCN(C(=O)c4csc(C)n4)CC3)nc(N)c2cc1OC [Example 13, 4-Amino-6,7-dimethyoxy-2-[4-(2-methylthiazole-4-carbonyl)piperazin-1-yl]quinazoline Hydrochloride] | -19% | -28% | -28% | 0.02 |  | maximum blood pressure lowering effect is seen at 3 mg./kg. which could not be increased at higher doses |  |  | 
COc1cc2nc(N3CCN(C(=O)c4cncs4)CC3)nc(N)c2cc1OC.Cl [Example 14, 4-Amino-6,7-dimethoxy-2-[4-(thiazole-5-carbonyl)piperazin-1-yl]quinazoline Hydrochloride] | -12% | -22% | -33% | 0.10 |  |  |  |  | 
COc1cc2nc(N3CCN(C(=O)c4cnc(C)s4)CC3)nc(N)c2cc1OC [Example 15, 4-Amino-6,7-dimethyoxy-2-[4-(2-methylthiazole-5-carbonyl)piperazin-1-yl]quinazoline Hydrochloride] | -20% | -25% | -37% | 0.19 | 0.09 |  |  |  | 
COc1cc2nc(N3CCN(C(=O)c4scnc4C)CC3)nc(N)c2cc1OC.Cl [Example 16, 4-Amino-6,7-dimethoxy-2-[4-(4-methylthiazole-5-carbonyl)piperazin-1-yl]quinazoline Hydrochloride] | -4% | -22% | -28% | 0.35 |  |  |  |  | 
COc1cc2nc(N3CCN(C(=O)c4ccco4)CC3)nc(N)c2cc1OC [Prazosin, 2-[4-(2-furoyl)-piperazin-1-yl]-4-amino-6,7-dimethoxyquinazoline, reference compound] |  |  |  |  |  |  | -14% | -29% | -42%
